From US20120178815A1, “Compositions of (-)-E-10-OH-NT and Methods for Their Synthesis and Use” (Adolor Corporation, priority 2007, published 2012)
“Also recorded” adds a separate entry of the source. Where two headings read alike, the source gives them in different places.

Tests used:
[1] = molecular target: T1, human muscarinic receptor M1 (Homo sapiens, UniProt P11229); assay: Muscarinic M1 receptor binding, [3H]pirenzepine; settings: read-out: Affinity for Muscarinic Receptors, M1, Ki
T1 construct: expressed in transfected cells; host or cells: CHO cells (membranes)
Description: (§1) Protocol. […] Bound radioactivity was determined by scintillation spectroscopy. Non-specific binding was defined as the amount of bound radioligand in the presence of 1.0 μM atropine. Radioligand for the M1 receptor was [^3H]pirenzepine (2 nM). Radioligand for the M2 receptor was [^3H]AF-DX384 (2 nM). Radioligand for the M3, M4, and M5 receptors was [^3H]4-DAMP.

[2] = molecular target: T2, 5HT uptake, rat brain synaptosomes (Rattus norvegicus, UniProt P31652); assay: Inhibition of [3H]-5HT uptake into synaptosomes; assay type: biochemical; settings: read-out: Monoamine Uptake Inhibition, 5HT, IC50
T2 construct: into rat brain synaptosomes; from tissue; host or cells: rat brain synaptosomes

[3] = molecular target: T3, human H1 histaminergic receptor (Homo sapiens, UniProt P35367); assay: H1 histaminergic receptor competitive binding assay, [3H]pyrilamine; settings: for reduction of H1 histaminergic receptor affinity compared to AT: relative to AT; for reduction of H1 histaminergic receptor affinity compared to NT: relative to NT
T3 construct: expressed in transfected cells; host or cells: HEK-293 cells (membranes)
Description: Protocol. The affinities of AT, NT, (+)-E-10-OH-NT and (−)-E-10-OH-NT for the H1 histaminergic receptor were assessed in a competitive binding assay. For the assay, [^3H]pyrilamine (3 nM) was incubated with various concentrations of test compound for 1 hour at 22° C. with membranes prepared from human embryonic kidney (HEK-293) cells heterologously expressing the cloned human H1 histaminergic receptor. Bound radioactivity was determined by scintillation spectroscopy. Non-specific binding was defined as the amount of binding that occurred in the presence of 1.0 μM unlabeled pyrilamine.

[4] = molecular target: human NE transporter (hNET) (Homo sapiens, UniProt P23975); assay: NE transporter competitive binding assay, [3H]nisoxetine
Description: (§2) Protocol. […] Bound radioactivity was determined by scintillation spectroscopy. Non-specific binding was defined as the amount of binding that occurred in the presence of 1.0 μM desipramine. The Ki values of the various test compounds were determined using standard methods.
as §2

[5] = system: L5 SNL rats, tactile allodynia; assay: L5-Single Nerve Ligation model of neuropathic pain (von Frey); assay type: in vivo, rat; settings: 30 mg/kg; for antiallodynic activity: i.p.
Description: Protocol. […] The test animals were placed in a Plexiglas chamber (10 cm×20 cm×25 cm) and habituated for 15 minutes. The chamber was positioned on top of a mesh screen so that von Frey monofilaments could be presented to the plantar surface of both hindpaws. Measurement of tactile sensitivity for each hindpaw were obtained using the up/down method (Dixon, 1980) with seven Frey monofilaments (0.4, 1, 2, 4, 6, 8 and 15 grams). Each trial started with a von Frey force of 2 grams delivered to the right hindpaw for approximately 1-2 seconds and then the left hindpaw. If there was no withdrawal response, the next higher force was delivered. If there was a response, the next lower force was delivered. This procedure was performed until no response was made at the highest force (15 grams) or until four stimuli were administered following the initial response. Each test group contained 8 animals. The sham-operated control group, which were operated on but not subject to nerve ligation, contained 4 animals. All animals were tested at 60 minutes, and 240 minutes, post-administration of test compounds.
The 50% paw withdrawal threshold for each paw was calculated using the following formula: [Xth] log=[vFr] log+ky where [vFr] is the force of the last von Frey used, k=0.2249 which is the average interval (in log units) between the von Frey monofilaments, and y is a value that depends upon the pattern of withdrawal responses (Dixon, 1980). […] Testing for tactile sensitivity was performed twice and the mean 50% withdrawal value assigned as the tactile sensitivity for the right and left paws for each animal.
The E-10-OH-NT compounds were administered as either a maleate or succinate salt. AT was administered as a hydrochloride salt. Dosage amounts are based on the amount of free base. The test animals were placed in a Plexiglas chamber (10 cm×20 cm×25 cm) and habituated for 15 minutes. The chamber was positioned on top of a mesh screen so that von Frey monofilaments could be presented to the plantar surface of both hindpaws. Measurement of tactile sensitivity for each hindpaw were obtained using the up/down method (Dixon, 1980) with seven Frey monofilaments (0.4, 1, 2, 4, 6, 8 and 15 grams). Each trial started with a von Frey force of 2 grams delivered to the right hindpaw for approximately 1-2 seconds and then the left hindpaw. If there was no withdrawal response, the next higher force was delivered. If there was a response, the next lower force was delivered. This procedure was performed until no response was made at the highest force (15 grams) or until four stimuli were administered following the initial response. Each test group contained 8 animals. The sham-operated control group, which were operated on but not subject to nerve ligation, contained 4 animals. […]

α2b adrenergic receptor = molecular target: T4, α2b adrenergic receptor (Homo sapiens, UniProt P18089); assay: α2b adrenergic receptor binding, [3H]RX821002; settings: read-out: Affinity at α2b adrenergic receptor, Ki
T4 construct: expressed in transfected cells; host or cells: CHO cells
Description: Nonspecific binding was determined in the presence of 100 μM (−)-epinephrine. Bound radioactivity was determined by scintillation spectroscopy.

[6] = molecular target: T5, human serotonin transporter (hSERT) (Homo sapiens, UniProt P31645); assay: 5HT transporter competitive binding assay, [3H]imipramine
T5 construct: expressed in transfected cells; host or cells: CHO cells (membranes)
Description: (§3) Bound radioactivity was determined by scintillation spectroscopy. […] The Ki values of the various test compounds were determined using standard methods.
as §3

[7] = molecular target: T6, human muscarinic receptor M3 (Homo sapiens, UniProt P20309); assay: Muscarinic M3 receptor binding, [3H]4-DAMP; settings: read-out: Affinity for Muscarinic Receptors, M3, Ki
T6 construct: expressed in transfected cells; host or cells: CHO cells (membranes)
Description: as §1

[8] = system: gastrointestinal transit in Swiss-Webster mice; assay: Mouse gastrointestinal transit (charcoal meal) assay; assay type: in vivo; settings: relative to sterile water vehicle, 1, 2 or 4 hours before charcoal meal
Description: Protocol. The inhibitory effect of AT, NT and (−)-E-10-OH-NT were assessed in a rodent model of gastrointestinal transit. For the assay, male Swiss-Webster mice (20-25 g) were fasted overnight and treated with test compound or sterile water vehicle control 1, 2 or 4 hours before per oral administration of a charcoal meal consisting of charcoal:flour:water (1:2:8, w:w:w). Gastrointestinal transit was measured 25 minutes after the charcoal meal. (−)-E-10-OH-NT was administered as either the maleate or succinate salt; AT and NT were administered as hydrochloride salts; the dosage amounts are based on the amount of free base.
Gastrointestinal transit (GIT) was determined by removing the entire length of the small intestine and measuring how far the leading edge of the charcoal meal traveled in the small intestine. The percent GIT (% GIT) was determined by the following formula:
% GIT=[distance to charcoal leading edge (cm)/length of small intestine (cm)×100]

[9] = Example 4, read-out: Monoamine Transporter Affinity, NE, Ki
[10] = Example 4, read-out: Monoamine Transporter Affinity, 5HT, Ki

Sequence of human NE transporter (hNET) (P23975 whole entry): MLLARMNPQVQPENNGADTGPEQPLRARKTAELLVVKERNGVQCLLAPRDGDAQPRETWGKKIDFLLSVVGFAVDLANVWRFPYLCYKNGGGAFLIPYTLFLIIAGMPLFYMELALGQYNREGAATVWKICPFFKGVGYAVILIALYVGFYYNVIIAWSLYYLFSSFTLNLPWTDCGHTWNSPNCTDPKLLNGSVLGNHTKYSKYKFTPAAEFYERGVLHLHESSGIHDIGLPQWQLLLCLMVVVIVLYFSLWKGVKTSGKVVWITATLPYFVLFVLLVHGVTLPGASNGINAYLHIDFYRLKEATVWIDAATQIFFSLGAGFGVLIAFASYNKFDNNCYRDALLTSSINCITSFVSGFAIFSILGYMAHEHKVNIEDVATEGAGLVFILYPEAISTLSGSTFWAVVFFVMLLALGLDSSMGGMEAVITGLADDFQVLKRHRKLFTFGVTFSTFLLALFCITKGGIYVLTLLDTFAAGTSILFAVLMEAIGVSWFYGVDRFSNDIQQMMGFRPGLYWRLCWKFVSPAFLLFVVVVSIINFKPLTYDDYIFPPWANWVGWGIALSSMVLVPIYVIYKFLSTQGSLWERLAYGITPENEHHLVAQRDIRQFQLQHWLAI
T5 sequence (P31645 whole entry): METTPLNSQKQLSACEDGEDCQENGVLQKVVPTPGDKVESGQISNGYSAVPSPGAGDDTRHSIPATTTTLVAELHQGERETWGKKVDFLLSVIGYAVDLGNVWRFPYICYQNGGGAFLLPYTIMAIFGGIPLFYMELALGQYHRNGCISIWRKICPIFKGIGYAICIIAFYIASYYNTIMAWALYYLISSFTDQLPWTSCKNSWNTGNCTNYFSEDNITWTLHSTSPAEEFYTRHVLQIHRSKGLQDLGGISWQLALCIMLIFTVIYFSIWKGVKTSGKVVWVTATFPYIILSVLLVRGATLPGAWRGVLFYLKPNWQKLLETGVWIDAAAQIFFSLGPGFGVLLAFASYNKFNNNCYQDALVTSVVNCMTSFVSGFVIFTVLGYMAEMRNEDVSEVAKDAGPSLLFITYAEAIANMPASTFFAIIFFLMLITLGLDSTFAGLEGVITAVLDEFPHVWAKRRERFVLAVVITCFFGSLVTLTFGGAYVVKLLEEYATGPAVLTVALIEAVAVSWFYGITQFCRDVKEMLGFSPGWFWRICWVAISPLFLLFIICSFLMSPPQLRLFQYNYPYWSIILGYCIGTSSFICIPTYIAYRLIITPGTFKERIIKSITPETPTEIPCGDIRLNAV
T3 sequence (P35367 whole entry): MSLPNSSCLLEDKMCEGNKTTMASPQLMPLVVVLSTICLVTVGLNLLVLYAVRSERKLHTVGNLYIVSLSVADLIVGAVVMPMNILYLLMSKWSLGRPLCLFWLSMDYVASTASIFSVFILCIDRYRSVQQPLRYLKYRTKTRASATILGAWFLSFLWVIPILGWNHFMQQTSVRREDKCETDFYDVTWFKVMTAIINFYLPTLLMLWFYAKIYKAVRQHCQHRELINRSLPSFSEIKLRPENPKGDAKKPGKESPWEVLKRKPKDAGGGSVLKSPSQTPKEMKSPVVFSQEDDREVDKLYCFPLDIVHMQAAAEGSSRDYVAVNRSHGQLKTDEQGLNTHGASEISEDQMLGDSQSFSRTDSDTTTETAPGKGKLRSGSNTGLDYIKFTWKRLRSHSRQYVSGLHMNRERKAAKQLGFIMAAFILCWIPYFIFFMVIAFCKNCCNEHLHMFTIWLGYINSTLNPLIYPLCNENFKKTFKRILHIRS
T1 sequence (P11229 whole entry): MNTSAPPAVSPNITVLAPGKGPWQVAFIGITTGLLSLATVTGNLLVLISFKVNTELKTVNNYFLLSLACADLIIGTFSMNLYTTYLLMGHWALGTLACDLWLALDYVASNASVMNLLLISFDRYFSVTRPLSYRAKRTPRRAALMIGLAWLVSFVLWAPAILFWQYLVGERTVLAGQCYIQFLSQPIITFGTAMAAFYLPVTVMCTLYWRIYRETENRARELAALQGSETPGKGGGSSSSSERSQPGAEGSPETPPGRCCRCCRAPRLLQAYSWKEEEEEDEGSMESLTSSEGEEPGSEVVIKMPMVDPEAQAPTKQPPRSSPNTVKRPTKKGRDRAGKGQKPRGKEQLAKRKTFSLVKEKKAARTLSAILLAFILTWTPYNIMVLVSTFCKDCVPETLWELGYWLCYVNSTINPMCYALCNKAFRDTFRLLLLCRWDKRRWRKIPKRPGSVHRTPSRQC
T2 sequence (P31652 whole entry): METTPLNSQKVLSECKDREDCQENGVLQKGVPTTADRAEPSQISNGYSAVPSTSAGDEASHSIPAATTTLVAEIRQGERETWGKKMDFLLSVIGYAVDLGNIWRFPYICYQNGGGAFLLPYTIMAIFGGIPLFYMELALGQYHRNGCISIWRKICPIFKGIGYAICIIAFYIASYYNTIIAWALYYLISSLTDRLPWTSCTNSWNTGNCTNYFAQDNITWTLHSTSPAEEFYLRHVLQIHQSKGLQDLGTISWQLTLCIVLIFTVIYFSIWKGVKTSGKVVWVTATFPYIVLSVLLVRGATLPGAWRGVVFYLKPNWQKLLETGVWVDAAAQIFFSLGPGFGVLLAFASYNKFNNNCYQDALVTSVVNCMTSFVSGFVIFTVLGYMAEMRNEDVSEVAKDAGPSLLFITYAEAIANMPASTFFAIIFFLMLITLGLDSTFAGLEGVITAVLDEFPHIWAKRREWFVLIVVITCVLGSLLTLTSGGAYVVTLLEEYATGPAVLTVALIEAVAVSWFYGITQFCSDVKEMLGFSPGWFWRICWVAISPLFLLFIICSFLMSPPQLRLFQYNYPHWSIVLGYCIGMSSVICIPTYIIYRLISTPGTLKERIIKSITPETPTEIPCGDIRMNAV
T6 sequence (P20309 whole entry): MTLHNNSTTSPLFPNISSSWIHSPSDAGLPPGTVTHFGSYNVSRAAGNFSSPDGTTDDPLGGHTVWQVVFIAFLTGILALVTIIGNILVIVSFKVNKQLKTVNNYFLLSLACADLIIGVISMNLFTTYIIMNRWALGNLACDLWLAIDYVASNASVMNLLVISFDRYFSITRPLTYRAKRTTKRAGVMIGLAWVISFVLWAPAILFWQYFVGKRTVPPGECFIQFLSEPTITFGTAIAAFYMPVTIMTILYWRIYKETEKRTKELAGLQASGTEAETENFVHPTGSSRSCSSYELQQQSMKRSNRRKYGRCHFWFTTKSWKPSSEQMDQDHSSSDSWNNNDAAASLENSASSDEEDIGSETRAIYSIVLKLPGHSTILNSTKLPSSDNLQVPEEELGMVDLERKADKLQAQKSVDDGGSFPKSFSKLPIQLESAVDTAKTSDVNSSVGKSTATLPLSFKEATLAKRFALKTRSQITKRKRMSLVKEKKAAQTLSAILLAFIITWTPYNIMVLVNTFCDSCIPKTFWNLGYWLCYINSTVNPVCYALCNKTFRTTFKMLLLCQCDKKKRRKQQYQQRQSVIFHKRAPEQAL
T4 sequence (P18089 whole entry): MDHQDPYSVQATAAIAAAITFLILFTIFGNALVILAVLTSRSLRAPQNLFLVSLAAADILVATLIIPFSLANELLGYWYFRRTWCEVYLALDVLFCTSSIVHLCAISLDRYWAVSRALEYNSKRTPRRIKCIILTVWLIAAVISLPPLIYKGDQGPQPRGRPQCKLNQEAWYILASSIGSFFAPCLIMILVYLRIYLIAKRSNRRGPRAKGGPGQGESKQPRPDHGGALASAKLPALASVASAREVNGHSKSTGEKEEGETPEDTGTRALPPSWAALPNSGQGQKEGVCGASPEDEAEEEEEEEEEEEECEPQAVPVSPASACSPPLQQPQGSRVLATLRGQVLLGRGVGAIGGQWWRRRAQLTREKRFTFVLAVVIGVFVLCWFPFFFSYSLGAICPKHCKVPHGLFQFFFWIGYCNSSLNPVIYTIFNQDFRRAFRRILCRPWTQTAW

Structure (SMILES)	Ki [1] [nM]	IC50 [2] [nM]	reduction of H1 histaminergic receptor affinity compared to AT [3] [fold]	reduction of H1 histaminergic receptor affinity compared to NT [3] [fold]	Ki [4, 9] [nM]	Ki ([4]; Example 14, read-out: NET Ki) [nM]	antiallodynic activity [5]	Ki (α2b adrenergic receptor) [nM]	Ki [6, 10] [nM]	Ki ([6]; Example 14, read-out: SERT Ki) [nM]	Ki [7] [nM]	antiallodynic activity, oral ([5]; p.o. and 60 mg/kg p.o.)	inhibition of gastrointestinal transit (% GIT) [8]
CNCC/C=C1\c2ccccc2C[C@H](O)c2ccccc21 (stereo in doubt) [(+)-E-10-OH-NT]	710	860	220	40	52	95	comparable to that of the vehicle-only control	4200	400	361	820	–	–
CNCC/C=C1\c2ccccc2C[C@@H](O)c2ccccc21 (stereo in doubt) [(−)-E-10-OH-NT]	410	4400	220	40	44	81	statistically significant over that observed for the vehicle-treated control group; also recorded: greater than that observed for the vehicle-treated control group	4300	660	617	390	greater than that observed for the vehicle-treated control	markedly lower inhibition of transit as compared to both AT and NT
